Assay results: article PMC5813964, “The enzymatic processing of α-dystroglycan by MMP-2 is controlled by two anchoring sites distinct from the active site” (PLoS ONE, 2018)
Each block holds one molecule with its values, some of them ahead of it. No end group written: not given here.

Columns and labels:
[1] = biological target: T1, cdMMP-2 (isolated catalytic domain of MMP-2) (Homo sapiens, UniProt P08253); assay: cdMMP-2 proteolysis of fluorogenic peptide, modulation by α-DG C-term peptide; assay type: biochemical; details: pH 7.3, 37°C, global fit Eqs 1-3
T1 construct: the catalytic domain of MMP-2 (without the hemopexin-like domain) retains the capability of degrading; purchased Biomol International
Experimental: (§1) Human MMP-2 proenzyme 2 was activated by incubating 0.1 mg/ml progelatinase solution with 0.25 mM aminophenyl mercuric acid (Sigma, St. Louis, MO, USA) at 37°C for 30 minutes. Whereas human recombinant cdMMP-2 human was dissolved in a solution of 50 mM Tris/HCl (pH 7.2), 0.1M NaCl and 10 mMCaCl. […] All measurements were performed at 37°C using a solution of 50 mM Tris–HCl, 0.1 M NaCl, 10 mM CaCl2 and 0.05% Brij 35 buffered at pH 7.3.
(§2) Different concentrations of the α-DG peptide (i.e., final concentration range spanning between 0 μM and 4 μM) were incubated with 0.07 μM active MMP-2 for 30 min at 37°C to allow the interaction to occur. In the case of the cdMMP2 the kinetics were performed employing 0.06 μM cdMMP-2 at different concentration of α-DG (613–651) peptide in the range 0–2 μM. Different concentrations of MCA fluorogenic peptide (i.e: from […]) were then added to this solution. The enzymatic reaction was recorded for 30 minutes at 37°C. The initial velocities were derived from the slopes within the first 15 minutes, which is the time period during which the rate is constant and less than 10% of the substrate was degraded. This ensured a steady-state condition for the first cleavage step, and it was a prerequisite for the subsequent analysis steps.
(§3) This behavior, which envisages the presence of (at least) two binding sites for the α-DG (613–651) peptide on the catalytic domain of MMP-2, can be kinetically and thermodynamically described by the scheme reported on Fig 5; where, ^0kcat and ^0Km are the observed catalytic parameters in the absence of the peptide, Ka and Kb are the peptide dissociation constants to the free enzyme for the two binding sites, α is the interaction parameter, which quantifies the effect on Km of the α-DG(613–651) peptide binding to the first binding site (α > 1 indicates a negative effect with a decreased affinity, α < 1 a positive effect and α = 1 no effect), β is the interaction parameter which estimates the effect on kcat of the binding of α-DG(613–651) peptide to the first binding site (β > 1 indicates a positive effect with an increased rate constant, β < 1 a negative effect and β = 1 no effect).
(§4) Data reported in Figs 4 and 5 have been analyzed according to the following equation: [E0]/v=^obsKm/^obskcat⋅1/[S]+1/^obskcat (Eq 1) where [E0] is the total enzyme concentration, ν is the observed velocity (expressed as mol/s), [S] is the substrate concentration, ^obskcat and ^obsKm are the observed catalytic parameters, namely ^obskcat=^0kcat⋅(Ka⋅α+β⋅[Pept])/(Ka⋅α+[Pept]) (Eq 2) and ^obsKm=^0Km⋅α⋅(Ka⋅Kb+Kb⋅[Pept]+[Pept]^2)/Kb⋅(Ka⋅α+[Pept]) (Eq 3) where ^0kcat and ^0Km are the catalytic paramenters in the absence of peptide and all other symbols have the same meaning as described above.

whole MMP-2 = biological target: T2, whole MMP-2 (Homo sapiens, UniProt P08253); assay: MMP-2 proteolysis of fluorogenic peptide, modulation by α-DG C-term peptide; assay type: biochemical; details: global fit Eqs 1-3
T2 construct: purchased R&D System, London, UK
T2 sequence (P08253 110-660): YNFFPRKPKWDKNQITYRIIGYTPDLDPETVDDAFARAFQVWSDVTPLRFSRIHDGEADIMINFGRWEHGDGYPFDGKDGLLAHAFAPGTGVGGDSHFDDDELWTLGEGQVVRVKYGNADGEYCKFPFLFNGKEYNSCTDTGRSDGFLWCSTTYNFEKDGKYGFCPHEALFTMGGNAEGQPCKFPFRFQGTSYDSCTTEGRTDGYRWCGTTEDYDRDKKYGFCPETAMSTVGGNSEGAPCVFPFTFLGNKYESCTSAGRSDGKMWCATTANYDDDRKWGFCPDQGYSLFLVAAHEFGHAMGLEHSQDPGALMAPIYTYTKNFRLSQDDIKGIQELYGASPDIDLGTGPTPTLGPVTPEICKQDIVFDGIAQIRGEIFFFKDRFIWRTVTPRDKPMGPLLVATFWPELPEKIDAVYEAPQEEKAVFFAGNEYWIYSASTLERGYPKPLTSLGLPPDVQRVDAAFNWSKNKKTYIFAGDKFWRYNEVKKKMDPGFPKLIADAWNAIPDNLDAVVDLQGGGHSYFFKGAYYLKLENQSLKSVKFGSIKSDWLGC
Experimental: as §1, §2, §3, §4

[2] = biological target: human recombinant catalytic domain of MMP-2 (cdMMP-2) (human); assay: enzyme inhibition kinetics (fluorogenic substrate); peptide (0-4 μM with 0.07 μM active MMP-2; 0-2 μM with 0.06 μM cdMMP-2) incubated with the enzyme 30 min at 37°C, then MCA-Pro-Leu-Gly-Leu-DPA-Ala-Arg-NH2 added; initial velocities, global fit of Lineweaver-Burk data to a scheme with two peptide binding sites (Eqs 1-3); 50 mM Tris-HCl, 0.1 M NaCl, 10 mM CaCl2, 0.05% Brij 35, pH 7.3, 37°C
[3] = biological target: human recombinant MMP-2 (whole enzyme, activated) (human); assay: as above
[4] = biological target: human recombinant catalytic domain of MMP-2 (cdMMP-2) (human)
[5] = biological target: human recombinant MMP-2 (whole enzyme, activated) (human)

^0Km ([1]; cd-MMP-2, absence of peptide): 1.9(±0.5)×10^−6 M
^0kcat ([1]; cd-MMP-2, absence of peptide): 26.1 ± 4.1 s⁻¹
^0kcat (whole MMP-2; whole MMP-2, absence of peptide, MCA-Pro-Leu-Gly-Leu-DPA-Ala-Arg-NH2 substrate, pH 7.3, 37°C, 50 mM Tris–HCl, 0.1 M NaCl, 10 mM CaCl2, 0.05% Brij 35, λexc 325 nm, λem 398 nm): 29.6 ± 4.5 s⁻¹
^0Km (whole MMP-2; whole MMP-2, absence of peptide, pH 7.3, 37°C): 1.5(±0.3)×10^−6 M
Molecule: MCA-Pro-Leu-Gly-Leu-DPA-Ala-Arg-NH2 [fluorogenic substrate, reference compound]

Kd ([1]; cd-MMP-2, fluorogenic substrate, peptide 0–2 μM, read-out: Ka (peptide dissociation constant to the free enzyme, first, high affinity non-competitive site)): 35 nM
Kb ([1]; cd-MMP-2, fluorogenic substrate, peptide 0–2 μM, read-out: Kb (peptide dissociation constant to the free enzyme, second, lower affinity competitive active site)): 210 nM
Kd (whole MMP-2; whole MMP-2, fluorogenic substrate, peptide 0-4 μM, 30 min preincubation at 37°C, pH 7.3, read-out: Ka (peptide dissociation constant to the free enzyme, first, high affinity non-competitive site)): 35 nM
Kb (whole MMP-2; whole MMP-2, fluorogenic substrate, peptide 0-4 μM, 30 min preincubation at 37°C, pH 7.3, read-out: Kb (peptide dissociation constant to the free enzyme, second, lower affinity competitive active site)): 210 nM
Molecule: VGDPALVLNDIHKKIALVKKLAFAFGDRNCSTITLQNIT [α-DG (613–651) peptide]

Ka (dissociation constant, first site, higher affinity, non-competitive) [2]: 35 nM
Kb (dissociation constant, second site, lower affinity, competitive) [2]: 210 nM
Ka (dissociation constant, first site, higher affinity, non-competitive) [3]: 35 nM
Kb (dissociation constant, second site, lower affinity, competitive) [3]: 210 nM
interaction parameter β (effect of peptide at the first site on kcat for the fluorogenic substrate) [4]: 0.32
interaction parameter α (effect of peptide at the first site on Km of the fluorogenic substrate) [5]: 1.7
interaction parameter β (effect of peptide at the first site on kcat for the fluorogenic substrate) [5]: 0.27
Molecule: VGDPALVLNDIHKKIALVKKLAFAFGDRNCSTITLQNIT [human α-DG (613–651) peptide]
